The values that follow come from patent US11266650B2, “Pharmaceutical composition for preventing and treating nonalcoholic steatohepatitis, hepatic fibrosis, and liver cirrhosis, comprising adenosine derivatives” (FUTURE MEDICINE CO., LTD., priority 2016, dated 2022).

Data set [1] has as its target T1, human A1 adenosine receptor (hA1) (Homo sapiens, UniProt P30542).
T1 construct: expressed in transfected cells; host or cells: CHO cells (ATCC No. CCL-61)
T1 sequence (P30542 1-326): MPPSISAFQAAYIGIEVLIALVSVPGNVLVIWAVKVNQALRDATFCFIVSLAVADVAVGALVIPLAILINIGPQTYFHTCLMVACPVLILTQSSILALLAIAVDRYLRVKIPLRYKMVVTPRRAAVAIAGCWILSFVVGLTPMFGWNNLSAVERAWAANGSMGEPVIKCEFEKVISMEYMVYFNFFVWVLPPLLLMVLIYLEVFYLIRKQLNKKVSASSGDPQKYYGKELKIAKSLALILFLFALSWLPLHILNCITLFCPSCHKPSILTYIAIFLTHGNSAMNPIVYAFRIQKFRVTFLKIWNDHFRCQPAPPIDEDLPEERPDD
Kind of data set: Binding affinity for human A1 adenosine receptor expressed in CHO cells ([3H]CCPA). Particulars: 10 μM (table footnote); read-out: percentage inhibition of specific binding, hA1.
Description: (§1) CHO cells (ATCC No. CCL-61), in which A1 and A3 adenosine receptors were expressed, were cultured in F-12 media (Gibco, U.S.A.) supplemented with 10% fetal bovine serum (FBS) and penicillin/streptomycin (100 units/ml and 100 g/ml), at 37° C. in a 5% CO2 atmosphere. […] Incubation for 1 hr in a 37° C. incubator was followed by rapid filtration in a vacuum using a cell collector (TOMTEC, U.S.A.). Subsequently, the test tubes were washed three times with 3 ml of the buffer before radioactivity was measured using a γ-counter. […] Ki for binding affinity was determined by subtracting the non-specific binding value from the total binding value. On the basis of the specific binding values, the samples were analyzed for binding affinity to various adenosine receptors.

The target in data set [2] is T2, human A2A adenosine receptor (hA2A) (Homo sapiens, UniProt P29274).
T2 construct: expressed in transfected cells; host or cells: HEK 293 cells
T2 sequence (P29274 whole entry): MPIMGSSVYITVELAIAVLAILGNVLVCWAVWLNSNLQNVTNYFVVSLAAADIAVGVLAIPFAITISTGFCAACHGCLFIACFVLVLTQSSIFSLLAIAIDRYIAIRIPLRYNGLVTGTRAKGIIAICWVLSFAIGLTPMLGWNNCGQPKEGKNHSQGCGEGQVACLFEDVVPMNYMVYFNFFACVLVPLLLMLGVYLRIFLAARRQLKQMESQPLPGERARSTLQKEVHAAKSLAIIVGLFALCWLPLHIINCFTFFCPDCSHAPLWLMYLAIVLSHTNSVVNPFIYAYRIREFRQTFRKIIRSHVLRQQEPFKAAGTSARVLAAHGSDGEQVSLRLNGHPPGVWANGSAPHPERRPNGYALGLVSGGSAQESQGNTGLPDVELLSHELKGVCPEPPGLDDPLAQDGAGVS
Briefly: Binding affinity for A2A adenosine receptor expressed on HEK 293 cell ([3H]CGS-21680). The settings on record: 10 μM (table footnote); read-out: percentage inhibition of specific binding, hA2A.
Description: Each of the compounds synthesized in the examples was measured for IC50 at least 6 different concentrations, and the measurements were analyzed using SigmaPlot software to determine Ki values.

Data set [3] has as its system TPA-induced inflammation of the mouse ear. Briefly: Anti-inflammatory activity, TPA-treated mouse ear. In kind it is in vivo, ICR mice. The settings on record: for anti-inflammatory activity relative to Examples 2 to 4: 0.5% in acetone, on the basis of inhibition percentage; for percentage of inflammation inhibition: topical, mouse ear. As to the method: The adenosine derivatives of the present invention were examined for anti-inflammatory activity in the following animal test. Seven-week-old male ICR mice were treated with TPA (12-O-tetradecanoylphorbol-13-acetate, 20 μl) in the right ear. […] Hydrocortisone was used at the same concentration as a control.
6 hrs after treatment with TPA, the mice were secondarily treated with the adenosine derivatives of the present invention. 24 hrs after TPA treatment, test animals were euthanized using a cervical dislocation method. Samples were obtained from the right ear using a 6 mm diameter punch. The activity was observed by measuring the ear sample using a microbalance. Percentages of inhibition were calculated using the following Equation 1. The compositions and amounts used in these experiments are summarized in Tables 2 to 5 and the anti-inflammatory activities thereof are shown in FIGS. 2 to 5.

For data set [4], the target named is T3, human A3 adenosine receptor (hA3 AR) (Homo sapiens, UniProt P0DMS8).
T3 construct: expressed in transfected cells; host or cells: CHO cells (ATCC No. CCL-61)
T3 sequence (P0DMS8 1-318): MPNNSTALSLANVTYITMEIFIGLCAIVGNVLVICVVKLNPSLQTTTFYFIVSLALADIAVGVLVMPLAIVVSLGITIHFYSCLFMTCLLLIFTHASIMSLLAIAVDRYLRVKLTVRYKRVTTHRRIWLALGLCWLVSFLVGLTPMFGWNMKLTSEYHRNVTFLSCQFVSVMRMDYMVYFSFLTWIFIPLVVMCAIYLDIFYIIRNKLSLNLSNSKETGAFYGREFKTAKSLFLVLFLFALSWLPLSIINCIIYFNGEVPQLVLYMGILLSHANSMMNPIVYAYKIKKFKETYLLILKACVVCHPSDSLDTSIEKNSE
Briefly: Binding affinity for human A3 adenosine receptor expressed in CHO cells ([125I]AB-MECA). The settings on record: for Ki: ± SEM, [125I]AB-MECA, CHO cells.
Description: as §1

Data set [5] concerns the target T4, human A2B adenosine receptor (Homo sapiens, UniProt P29275).
T4 sequence (P29275 1-332): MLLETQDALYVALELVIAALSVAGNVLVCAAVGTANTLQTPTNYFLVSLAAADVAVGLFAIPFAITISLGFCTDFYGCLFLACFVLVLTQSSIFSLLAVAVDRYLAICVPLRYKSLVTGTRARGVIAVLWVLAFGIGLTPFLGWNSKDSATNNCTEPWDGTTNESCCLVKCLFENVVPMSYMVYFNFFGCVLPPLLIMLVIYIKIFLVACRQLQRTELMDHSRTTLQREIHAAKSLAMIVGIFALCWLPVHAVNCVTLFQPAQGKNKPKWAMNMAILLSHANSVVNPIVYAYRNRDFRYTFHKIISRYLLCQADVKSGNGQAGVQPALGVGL
Briefly: Agonist or antagonist activity on human A2B adenosine receptor. In kind it is biochemical.

The target of data set [6] is T5, human A3 adenosine receptor (Homo sapiens, UniProt P0DMS8).
T5 construct: expressed in transfected cells; host or cells: CHO cells
T5 sequence (P0DMS8 1-318): T3 sequence (P0DMS8 1-318)
Briefly: Antagonism of Cl-IB-MECA and cAMP inhibition in CHO cells expressing human A3 adenosine receptor. In kind it is cell-based. Particulars: CHO cells expressing hA3 AR, various concentrations.

The subject of data set [7] is NASH- or NAFLD-induced mice. Briefly: Efficacy test on NASH or NAFLD and liver fibrosis in NASH- or NAFLD-induced mice. In kind it is in vivo. The settings on record: oral once a day, 6 to 10 weeks of age; vs negative control; HE staining. The protocol:
As a comparison group, eight normal mice were given no treatment until 10 weeks of age. As a positive control group, eight NASH- or NAFLD-induced mice were orally administered with 10 mg/kg of telmisartan (i.e., a hypertension medication) once a day for six to 10 weeks of age. As a negative control group, eight NASH- or NAFLD-induced mice were orally administered with only 10 mL/kg of 0.5% methyl cellulose (i.e., a vehicle) once a day for 6 to 10 weeks of age.
Then, for the livers of the experimental animals at 10 weeks of age, the degree of steatosis, inflammation and ballooning were measured using HE staining, and the area of fibrosis was observed and measured using Sirius red staining.

[8] abbreviates: 0.5% in distilled water:acetone (1:4).

SMILES strings stand for the structures.

What is called inhibition is the change of the read-out against control, counted positive when it falls. By melting point is commonly meant the temperature, or range, at which the solid turns liquid. For orientation: Ki means the dissociation constant of the complex between target and ligand, obtained from inhibition or displacement.

`COc1ccccc1CNc1nc(Cl)nc2c1ncn2[C@@H]1SC[C@@H](O)[C@H]1O` [Example 7, (2R,3R,4S)-2-(2-chloro-6-(2-methoxybenzylamino)-9H-purin-9-yl)tetrahydrothiophen-3,4-diol] yielded a melting point of 188 °C. In addition, in data set [1], the inhibition at 10 µM amounted to 9.4%. Moreover, in data set [2], the inhibition was 17.5%.

On to `COc1ccc(Cl)cc1CNc1nc(Cl)nc2c1ncn2[C@@H]1SC[C@@H](O)[C@H]1O` [Example 6, (2R,3R,4S)-2-(2-Chloro-6-(5-chloro-2-methoxybenzylamino)-9H-purin-9-yl)tetrahydrothiophen-3,4-diol], for which the melting point fell in the range of 188.8 to 189.8 °C. Further, the inhibition at 10 µM in data set [1] was found to be 23.8%. In addition, the “anti-inflammatory activity relative to Examples 2 to 4” value in data set [3] was “four or more times that of the compounds of Examples 2 to 4”.

`O=C(O)c1cccc(CNc2nc(Cl)nc3c2ncn3[C@@H]2SC[C@@H](O)[C@H]2O)c1` [Example 9, 3-((2-chloro-9-((2R,3R,4S)-3,4-dihydroxytetrahydrothiophen-2-yl)-9H-purine-6-ylamino)methyl)benzoic acid]: the melting point lay in the range of 254 to 256.9 °C. Moreover, the inhibition at 10 µM in data set [1] was 13.1%. The inhibition in data set [2] was -0.18%. For the same molecule, in data set [4] (10 μM (table footnote), read-out: percentage inhibition of specific binding, hA3), the inhibition at 10 µM turned out to be 41.5%.

Consider `O[C@@H]1[C@H](O)CS[C@H]1n1cnc2c(NCc3cccc(I)c3)nc(Cl)nc21` [Example 4, (2R,3R,4S)-2-(2-Chloro-6-(3-iodobenzylamino)-9H-purin-9-yl)tetrahydrothiophen-3,4-diol], for which the “agonist or antagonist on human A2B adenosine receptor” value in data set [5] is on record as “not observed as an agonist or antagonist”. In addition, in data set [6], the “inhibition of the agonist effect of Cl-IB-MECA” value is “inhibited in a dose-dependent manner”.

`CCCc1nc2c(C)cc(-c3nc4ccccc4n3C)cc2n1Cc1ccc(-c2ccccc2C(=O)O)cc1` [telmisartan]: in data set [7], the “steatosis score of the liver” value was “no significant decrease in steatosis was observed”.

Take `O[C@@H]1[C@H](O)CS[C@H]1n1cnc2c(NCc3cccc(Br)c3)nc(Cl)nc21` [Example 3, (2R,3R,4S)-2-(2-Chloro-6-(3-bromobenzylamino)-9H-purin-9-yl)tetrahydrothiophen-3,4-diol]: the melting point is 184 to 185 °C. Besides, in data set [1], the inhibition at 10 µM is 34.2%. In data set [2], the inhibition worked out at 18.4%.

With `CNc1nc(Cl)nc2c1ncn2[C@@H]1SC[C@H](O)[C@@H]1O` [Example 10, 2-(2-Chloro-6-methylamino-purin-9-yl)(2R,3 S,4R)-tetrahydrothiophen-3,4-diol], the inhibition at 10 µM in data set [1] turned out to be 55.4 ± 1.8%. Further, the inhibition in data set [2] was found to be 45 ± 1.4%. In data set [4], this molecule returned an inhibitory constant (Ki) of 0.00369 ± 0.00025 µM.

For `O[C@@H]1[C@H](O)CS[C@H]1n1cnc2c(NCc3cccc4ccccc34)nc(Cl)nc21` [Example 8, (2R,3R,4S)-2-(2-Chloro-6-(naphthalen-1-ylmethylamino)-9H-purin-9-yl)tetrahydrothiophen-3,4-diol], the melting point is 226.3 °C (dec.). In addition, in data set [1], the inhibition at 10 µM turned out to be 22%. In addition, the inhibition in data set [2] is -8.3%. For the same molecule, the “percentage of inflammation inhibition” value in data set [3] (setting [8]) is 53%.

For `O[C@@H]1[C@H](O)CS[C@H]1n1cnc2c(NCc3cccc(I)c3)ncnc21` [Example 14, (2R,3R,4S)-2-(6-(3-Iodobenzylamino)-9H-purin-9-yl)tetrahydrothiophen-3,4-diol], the melting point fell in the range of 198.8 to 199.8 °C.

Molecule `O[C@@H]1[C@H](O)CO[C@H]1n1cnc2c(NCc3cccc(Br)c3)nc(Cl)nc21` [Example 15, (2R,3R,4R)-2-(6-(3-bromobenzylamino)-2-chloro-9H-purin-9-yl)tetrahydrofuran-3,4-diol] displayed a melting point of 181.5 to 181.7 °C. The inhibition at 10 µM in data set [1] worked out at 39.8%. In addition, the inhibition in data set [2] was 22.8%. Besides, the “percentage of inflammation inhibition” value in data set [3] (0.5% in DMSO:acetone (1:9)) turned out to be 59%.

On to `O[C@@H]1[C@H](O)CS[C@H]1n1cnc2c(NCc3cccc(Br)c3)ncnc21` [Example 13, (2R,3R,4S)-2-(6-(3-bromobenzylamino)-9H-purin-9-yl)tetrahydrothiophen-3,4-diol], for which the melting point lay in the range of 183 to 184 °C.

As for `O[C@@H]1[C@H](O)CS[C@H]1n1cnc2c(NCc3cccc(F)c3)nc(Cl)nc21` [Example 1, (2R,3R,4S)-2-(2-Chloro-6-(3-fluorobenzylamino)-9H-purin-9-yl)tetrahydrothiophen-3,4-diol], the melting point lay in the range of 183.2 to 183.5 °C. Further, in data set [1], the inhibition at 10 µM turned out to be 19.8%. In data set [2], the inhibition was 47.6%. In addition, the “anti-inflammatory activity relative to Examples 2 to 4” value in data set [3] is reported as “four or more times that of the compounds of Examples 2 to 4”.

In the case of `O[C@@H]1[C@H](O)CS[C@H]1n1cnc2c(NCc3ccccc3Cl)nc(Cl)nc21` [Example 5, (2R,3R,4S)-2-(2-Chloro-6-(2-chlorobenzylamino)-9H-purin-9-yl)tetrahydrothiophen-3,4-diol], the melting point lay in the range of 198.7 to 199.7 °C. Also, in data set [1], the inhibition turned out to be 12.8%. Also, the “percentage of inflammation inhibition” value in data set [3] (setting [8]) amounted to 17%.

`OC1CO[C@@H](n2cnc3c(NCc4cccc(I)c4)nc(Cl)nc32)C1O` (stereo partly drawn) [Example 16, (2R,3R,4R)-2-(6-(3-iodobenzylamino)-2-chloro-9H-purin-9-yl)tetrahydrofuro-3,4-diol] came in with a melting point of 195.5 to 195.8 °C. In addition, in data set [1], the inhibition at 10 µM came out at 37.7%. Also, the inhibition in data set [2] was found to be 28.6%. In data set [4], this molecule gave an inhibition constant (Ki) of 0.0429 ± 0.0089 µM. The “percentage of inflammation inhibition” value in data set [3] (0.5% in DMSO:acetone (1:9)) is reported as 79%.
